Experimental data taken from patent US10155948B2, “Pharmaceutical composition for preventing or treating diabetic complications and screening method for preventive or therapeutic agent for diabetic complications” (KANGWON NATIONAL UNIVERSITY UNIVERSITY-INDUSTRY COOPERATION …, priority 2016, dated 2018).

Target: T1, TGase2 (Mus musculus, UniProt P21981)
T1 construct: from tissue; host or cells: retina of streptozotocin-diabetic C57BL/6 mice
T1 sequence (P21981 1-686): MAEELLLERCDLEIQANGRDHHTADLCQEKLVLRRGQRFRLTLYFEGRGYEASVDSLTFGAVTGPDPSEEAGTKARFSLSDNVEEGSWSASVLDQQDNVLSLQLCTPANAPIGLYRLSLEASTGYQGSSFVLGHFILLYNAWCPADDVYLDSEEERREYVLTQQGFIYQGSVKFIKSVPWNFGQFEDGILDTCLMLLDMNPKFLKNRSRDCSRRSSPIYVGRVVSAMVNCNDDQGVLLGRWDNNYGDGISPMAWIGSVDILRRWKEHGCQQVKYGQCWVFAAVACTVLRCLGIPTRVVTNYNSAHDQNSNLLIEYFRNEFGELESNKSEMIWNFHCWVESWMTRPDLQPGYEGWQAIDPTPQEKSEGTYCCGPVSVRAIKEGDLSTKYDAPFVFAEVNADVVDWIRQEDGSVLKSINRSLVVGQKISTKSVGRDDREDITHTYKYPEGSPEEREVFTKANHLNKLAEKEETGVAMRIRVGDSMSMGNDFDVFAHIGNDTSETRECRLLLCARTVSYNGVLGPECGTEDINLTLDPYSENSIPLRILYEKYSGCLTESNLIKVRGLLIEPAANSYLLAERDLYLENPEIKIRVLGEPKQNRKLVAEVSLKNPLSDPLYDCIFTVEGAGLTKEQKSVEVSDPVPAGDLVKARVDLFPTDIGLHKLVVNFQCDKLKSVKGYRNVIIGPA
Assay: In-vivo TGase activity in retina of streptozotocin-diabetic mice
Conditions: for hyperglycemia-induced TGase2 activation in diabetic retina (in-vivo TGase activity): diabetic mice, intravitreal 2 μl: 50 mM cystamine, 20 mM MDC, 1 μM C-peptide, 2 μM Trolox, 500 mM NAC, after 24 hrs, n=8; for increase of TGase activity in retinas of diabetic mice: intravitreal injection, 0.5 mM dopamine, 500 mM cysteamine
Protocol: Two weeks after streptozotocin injection, diabetic mice were intravitreally injected with 2 μl of TGase inhibitors (50 mM cystamine or 20 mM MDC), 1 μM C-peptide (American Peptide Company, Sunnyvale, Calif.), ROS scavengers (2 μM Trolox or 500 mM NAC), or 65 μM mouse TG2-specific siRNA (Dharmacon, Lafayette, Colo.) into one eye and an equal volume of PBS or mouse control siRNA (Dharmacon, Lafayette, Colo.) into the contralateral eye. Non-diabetic mice were also intravitreally injected with 2 μl of PBS or mouse control siRNA into the eyes. After 24 hrs for inhibitors or C-peptide or 48 hrs for mouse TGase2 siRNA, mice were subjected to measurement of in-vivo TGase activity and vascular leakage from the retina.
In vivo Tgase transamidating activity was determined in mouse retina using confocal microscopy (FIG. 5A). 24 hrs after intravitreal injection of TGase2 inhibitors and C-peptide or 48 h after the injection of mouse TGase2-specific siRNA, mice were deeply anaesthetized using 2.5% avertin and 48 μl of 100 mM BAPA was injected into the left ventricle. BAPA was allowed to circulate for 10 min and mice were sacrificed by cervical dislocation. Eyes were then enucleated and immediately fixed with 4% paraformaldehyde for 45 min. Retinas were dissected in the Maltese cross-configuration and permeabilized with 0.2% Triton X-100 in PBS for 30 min at RT. After incubation with the blocking solution for 30 min, retinas were treated with FITC-conjugated streptavidin (1:200, v/v) in the blocking solution for 1 hr at RT. The superficial vessels of stained retinas (n=8 per group) were observed using confocal microscopy and fluorescence intensities were analyzed using Fluoview software (FV-300). In-vivo TGase activities were quantitatively determined using fluorescence intensities in the retinas of normal and diabetic mice.
Six-week-old male C57BL/6 mice were obtained from KOATECH (Pyeongtaek, Korea). TGase2^−/− mice (C57BL/6) were prepared by disrupting exons 5 and 6 of TGase2 by homologous recombination, as previously described. Diabetic mice were generated by a single intraperitoneal injection of streptozotocin (150 mg/kg body weight, Sigma) freshly prepared in 100 mM citrate buffer (pH 4.5) as previously described. Mice with non-fasting blood glucose levels greater than 19 mM, polyuria and glucosuria were considered diabetic. Experiments were performed in strict accordance with the guidelines of the Institutional Animal Care and Use Ethics Committee of Kangwon National University.
To validate the in-vitro findings, the present inventors further investigated the role of TGase2 in hyperglycemia-induced vascular leakage in the retina of diabetic mice. For this study, the present inventors designed an in-vivo TGase activity assay using confocal microscopy in mouse retina (FIG. 5A). In this assay, BAPA, which is a TGase2 pseudo substrate, was systemically delivered into the blood circulatory system by injection into the left ventricles of mice, and biotinylated proteins in the retinas were probed with FITC-conjugated streptavidin.
(A) A schematic diagram for determining TGase2 activity in mouse retina. (B,C) Streptozotocin-induced diabetic mice were intravitreally injected with 2 μl cystamine (diabetic+Cys), MDC (diabetic+MDC), C-peptide (diabetic+C-pep), Trolox (diabetic+Trolox) or NAC (diabetic+NAC) into one eye and an equal volume of PBS into the contralateral eye (diabetic). Non-diabetic mice were also intravitreally injected with 2 μl PBS into both eyes (normal). TGase2 activities in retinas were visualized by confocal microscopy and quantitatively determined as described in Research Design and Methods (n=8 per group). (B) Representative TGase activity images in the retinas. […] Scale bar, […]. (C) In-vivo TGase activities were quantified by measuring the fluorescence intensity in retinas (***p<0.001). […]

hyperglycemia-induced TGase2 activation in diabetic retina (in-vivo TGase activity) | increase of TGase activity in retinas of diabetic mice | Compound
suppressed | – | NCCSSCCN [cystamine]
– | inhibited | NCCS [cysteamine]
suppressed | – | CN(C)c1cccc2c(S(=O)(=O)NCCCCCN)cccc12 [MDC, monodansylcadaverine]
prevented | – | Cc1c(C)c2c(c(C)c1O)CCC(C)(C(=O)O)O2 (centres unmarked) [Trolox]
– | inhibited | NCCc1ccc(O)c(O)c1 [dopamine]
